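Grown in 96-well plates, cells were treated for 48 hours with each compound at five concentrations. Insufficient inhibition: endpoint recorded as highest concentration tested. GI50 is the concentration that inhibits growth by half. The concentration for full growth arrest is given as TGI.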
Key:
Test in all cases: NCI tumour cell line growth inhibition, 48 h
786-0 renal = system: 786-0 renal
A498 renal = system: A498 renal
A549 NSCLC = system: A549 NSCLC
ACHN renal = system: ACHN renal
BT-549 breast = system: BT-549 breast
CAKI-1 renal = system: CAKI-1 renal
CCRF-CEM leukemia = system: CCRF-CEM leukemia
COLO 205 colon = system: COLO 205 colon
DU-145 prostate = system: DU-145 prostate
EKVX NSCLC = system: EKVX NSCLC
HCC-2998 colon = system: HCC-2998 colon
HCT-116 colon = system: HCT-116 colon
HCT-15 colon = system: HCT-15 colon
HL-60(TB) leukemia = system: HL-60(TB) leukemia
HOP-62 NSCLC = system: HOP-62 NSCLC
HOP-92 NSCLC = system: HOP-92 NSCLC
HS 578T breast = system: HS 578T breast
HT29 colon = system: HT29 colon
IGROV1 ovarian = system: IGROV1 ovarian
K-562 leukemia = system: K-562 leukemia
KM12 colon = system: KM12 colon
LOX IMVI melanoma = system: LOX IMVI melanoma
M14 melanoma = system: M14 melanoma
MALME-3M melanoma = system: MALME-3M melanoma
MCF7 breast = system: MCF7 breast
MDA-MB-231 breast = system: MDA-MB-231 breast
MDA-MB-435 = system: MDA-MB-435
MDA-MB-468 breast = system: MDA-MB-468 breast
MOLT-4 leukemia = system: MOLT-4 leukemia
NCI-H226 lung = system: NCI-H226 lung
NCI-H23 lung = system: NCI-H23 lung
NCI-H460 lung = system: NCI-H460 lung
NCI-H522 lung = system: NCI-H522 lung
NCI/ADR-RES ovarian = system: NCI/ADR-RES ovarian
OVCAR-3 ovarian = system: OVCAR-3 ovarian
OVCAR-4 ovarian = system: OVCAR-4 ovarian
OVCAR-5 ovarian = system: OVCAR-5 ovarian
OVCAR-8 ovarian = system: OVCAR-8 ovarian
PC-3 prostate = system: PC-3 prostate
RPMI-8226 leukemia = system: RPMI-8226 leukemia
RXF 393 renal = system: RXF 393 renal
SF-268 CNS = system: SF-268 CNS
SF-295 CNS = system: SF-295 CNS
SF-539 CNS = system: SF-539 CNS
SK-MEL-2 melanoma = system: SK-MEL-2 melanoma
SK-MEL-28 melanoma = system: SK-MEL-28 melanoma
SK-MEL-5 melanoma = system: SK-MEL-5 melanoma
SK-OV-3 ovarian = system: SK-OV-3 ovarian
SN12C renal = system: SN12C renal
SNB-19 CNS = system: SNB-19 CNS
SNB-75 CNS = system: SNB-75 CNS
SR leukemia = system: SR leukemia
SW-620 colon = system: SW-620 colon
T-47D breast = system: T-47D breast
TK-10 renal = system: TK-10 renal
U251 CNS = system: U251 CNS
UACC-257 melanoma = system: UACC-257 melanoma
UACC-62 melanoma = system: UACC-62 melanoma
UO-31 renal = system: UO-31 renal

With O=C(CS(=O)(=O)c1oc(-c2ccc(Cl)cc2)nc1S(=O)(=O)c1ccc(Cl)cc1)N1CCOCC1 the GI50 (786-0 renal) was 7.65 µM, the TGI (786-0 renal) was 21.8 µM and the GI50 (A498 renal) was 26.8 µM. It also gave a TGI (A498 renal) of 93.4 µM, a GI50 (A549 NSCLC) of 45.9 µM and a TGI (A549 NSCLC) of over 100 µM. It also gave a GI50 (ACHN renal) of 3.17 µM, a TGI (ACHN renal) of 11.3 µM and a GI50 (BT-549 breast) of 4.64 µM. It also gave a TGI (BT-549 breast) of 16.8 µM, a GI50 (CAKI-1 renal) of 6.63 µM and a TGI (CAKI-1 renal) of 19.4 µM. It also gave a GI50 (CCRF-CEM leukemia) of 1.68 µM, a TGI (CCRF-CEM leukemia) of 24.2 µM and a GI50 (COLO 205 colon) of 11.6 µM. It also gave a TGI (COLO 205 colon) of 55.9 µM, a GI50 (DU-145 prostate) of 12.3 µM and a TGI (DU-145 prostate) of 24.8 µM. It also gave a GI50 (EKVX NSCLC) of 12.1 µM, a TGI (EKVX NSCLC) of 26.4 µM and a GI50 (HCC-2998 colon) of 17.2 µM. The TGI (HCC-2998 colon) was 40.8 µM, the GI50 (HCT-116 colon) was 3.04 µM and the TGI (HCT-116 colon) was 11.4 µM. It also gave a GI50 (HCT-15 colon) of 2.27 µM, a TGI (HCT-15 colon) of 5.68 µM and a GI50 (HL-60(TB) leukemia) of 4.49 µM. It also gave a TGI (HL-60(TB) leukemia) of 34.9 µM, a GI50 (HOP-62 NSCLC) of 18.1 µM and a TGI (HOP-62 NSCLC) of 47.3 µM. For the same compound, the GI50 (HOP-92 NSCLC) was 10.7 µM, the TGI (HOP-92 NSCLC) was 28.6 µM and the GI50 (HS 578T breast) was 7.9 µM. For the same compound, the TGI (HS 578T breast) was 36.4 µM, the GI50 (HT29 colon) was 4.32 µM and the TGI (HT29 colon) was 40.2 µM. It also gave a GI50 (IGROV1 ovarian) of 11 µM, a TGI (IGROV1 ovarian) of 23.7 µM and a GI50 (K-562 leukemia) of 2.14 µM. The TGI (K-562 leukemia) was over 100 µM, the GI50 (KM12 colon) was 29.5 µM and the TGI (KM12 colon) was over 100 µM. For the same compound, the GI50 (LOX IMVI melanoma) was 1.84 µM, the TGI (LOX IMVI melanoma) was 4.27 µM and the GI50 (M14 melanoma) was 6.75 µM. It also gave a TGI (M14 melanoma) of 21 µM, a GI50 (MALME-3M melanoma) of 2.81 µM and a TGI (MALME-3M melanoma) of 9.77 µM. It also gave a GI50 (MCF7 breast) of 4 µM, a TGI (MCF7 breast) of 18.5 µM and a GI50 (MDA-MB-231 breast) of 6.7 µM. It also gave a TGI (MDA-MB-231 breast) of 19.3 µM, a GI50 (MDA-MB-435) of 12 µM and a TGI (MDA-MB-435) of 25.7 µM. For the same compound, the GI50 (MDA-MB-468 breast) was 2.52 µM, the TGI (MDA-MB-468 breast) was 8.07 µM and the GI50 (MOLT-4 leukemia) was 2.54 µM. The TGI (MOLT-4 leukemia) was 18.7 µM, the GI50 (NCI-H226 lung) was 22.9 µM and the TGI (NCI-H226 lung) was 91 µM. For the same compound, the GI50 (NCI-H23 lung) was 13.4 µM, the TGI (NCI-H23 lung) was 26.5 µM and the GI50 (NCI-H460 lung) was 16.5 µM. The TGI (NCI-H460 lung) was 39.4 µM, the GI50 (NCI-H522 lung) was 1.64 µM and the TGI (NCI-H522 lung) was 3.51 µM. It also gave a GI50 (NCI/ADR-RES ovarian) of 14.5 µM, a TGI (NCI/ADR-RES ovarian) of 31.2 µM and a GI50 (OVCAR-3 ovarian) of 3.3 µM. The TGI (OVCAR-3 ovarian) was 10.5 µM, the GI50 (OVCAR-4 ovarian) was 12.7 µM and the TGI (OVCAR-4 ovarian) was 27.6 µM. It also gave a GI50 (OVCAR-5 ovarian) of 13.6 µM, a TGI (OVCAR-5 ovarian) of 31.6 µM and a GI50 (OVCAR-8 ovarian) of 15.4 µM. It also gave a TGI (OVCAR-8 ovarian) of 35.4 µM, a GI50 (PC-3 prostate) of 11.9 µM and a TGI (PC-3 prostate) of 31.5 µM. The GI50 (RPMI-8226 leukemia) was 5.2 µM, the TGI (RPMI-8226 leukemia) was over 100 µM and the GI50 (RXF 393 renal) was 2.58 µM. The TGI (RXF 393 renal) was 8.82 µM, the GI50 (SF-268 CNS) was 15.1 µM and the TGI (SF-268 CNS) was 33.7 µM. It also gave a GI50 (SF-295 CNS) of 16.9 µM, a TGI (SF-295 CNS) of 54.7 µM and a GI50 (SF-539 CNS) of 7.94 µM. It also gave a TGI (SF-539 CNS) of 20.5 µM, a GI50 (SK-MEL-2 melanoma) of 16.7 µM and a TGI (SK-MEL-2 melanoma) of 32.4 µM. For the same compound, the GI50 (SK-MEL-28 melanoma) was 12.1 µM, the TGI (SK-MEL-28 melanoma) was 24.5 µM and the GI50 (SK-MEL-5 melanoma) was 24.3 µM. The TGI (SK-MEL-5 melanoma) was 86.3 µM, the GI50 (SK-OV-3 ovarian) was 40.8 µM and the TGI (SK-OV-3 ovarian) was over 100 µM. For the same compound, the GI50 (SN12C renal) was 12.1 µM, the TGI (SN12C renal) was 25.8 µM and the GI50 (SNB-19 CNS) was 27.5 µM. The TGI (SNB-19 CNS) was over 100 µM, the GI50 (SNB-75 CNS) was 4.89 µM and the TGI (SNB-75 CNS) was 23.2 µM. For the same compound, the GI50 (SR leukemia) was 2.86 µM, the TGI (SR leukemia) was over 100 µM and the GI50 (SW-620 colon) was 2.06 µM. The TGI (SW-620 colon) was 4.8 µM, the GI50 (T-47D breast) was 3.32 µM and the TGI (T-47D breast) was 16.3 µM. It also gave a GI50 (TK-10 renal) of 14.3 µM, a TGI (TK-10 renal) of 27.8 µM and a GI50 (U251 CNS) of 38 µM. The TGI (U251 CNS) was over 100 µM, the GI50 (UACC-257 melanoma) was 15.4 µM and the TGI (UACC-257 melanoma) was 30.2 µM. For the same compound, the GI50 (UACC-62 melanoma) was 11.1 µM, the TGI (UACC-62 melanoma) was 23.8 µM and the GI50 (UO-31 renal) was 8.79 µM. It also gave a TGI (UO-31 renal) of 21.1 µM.

From PubChem BioAssay (NCI)
